Assay results from patent US20230226184A1, “IMPROVEMENTS IN ULTRASOUND-MEDIATED THERAPY” (Bracco Suisse SA, priority 2020, published 2023).

What was measured:
[1] = system: NMU tumor; test: Tumour perfusion during US-MV treatment followed by contrast echography (Example 6); format: in vivo, rat; conditions: Nimodipine 1.4 mg/kg iv 10 min before; P02 1.2E+09 MV/kg, 4 boluses; US 600 kPa, 1 ms ON/15 s OFF, 20 min
Description: Pre-pubescent rats (female, Sprague Dawley) received a single intra-peritoneal injection of 50 mg/kg of NMU (N-nitroso-N-methylurea, Sigma, Switzerland). […] Serial bolus injections of gas-filled microvesicles (as specified in Table 5) were performed and the tumor was submitted to therapeutic insonation (frequency, acoustic pressure and pulse characteristics as specified in the subsequent examples). The perfusion of tumor during treatment was assessed as described in Example 5. All parameters relative to microvesicles and ultrasound treatment were fixed (see Table 5). The therapeutic insonation parameters were chosen in accordance with the previous studies, to obtain a vascular permeabilization in the NMU tumor.

[2] = system: mouse DA3 tumor model; test: Tumour perfusion during US-MV treatment followed by contrast echography (Example 5); format: in vivo; conditions: Nimodipine 1.4 mg/kg iv 10 min before; P01 1.3E+09 MV/kg, 4 boluses; US 800 kPa, 1 ms ON/15 s OFF, 25 min
Description: The mouse DA3 tumor model was used in these studies. The US treatment was delivered by the Verasonic® system (probe P4-2). The probe was placed at 5 cm from the tumor (spaced by a water tank, filled with degassed water). […] The perfusion of each tumor was followed by the echographic signal of microvesicles (Verasonic® system). The signal was recorded and post-analysed with Vuebox® software. […] The expression “replenishment time” indicates the time required to supply the area under the ultrasound beam with the vessel with fresh gas-filled microvesicles, after the substantial destruction of MV caused by each US pulse. The expression “MV destruction” corresponds to the loss of integrity or structure of MV caused by acoustic activation of MV by US. This can be provoked for example by MV collapse or gas dissolution and monitored by acoustic signal follow up. All parameters relative to microvesicles and ultrasound treatment were fixed (see Table 4). The therapeutic insonation parameters were chosen in accordance with the previous studies, to obtain a vascular permeabilization in the DA3 tumor.

[3] = system: mesenteric rat microcirculation; test: Vasospasm inhibition by vasospasm inhibitor pre-treatment before US-MV (Examples 4, 7); format: in vivo; conditions: Nimodipine 1.4 mg/kg, pre-treatment time 10 min; P02 1.5E+09 MV/kg, 1 bolus; US 400 kPa, 1 ms ON/10 s OFF, 5 min
[4] = system: NMU rat tumor model; test: Extravasation of Cy5.5-labeled 150 kDa-dextran in tumour after US-MV treatment (Example 1); format: in vivo
Description: The model used was the NMU rat tumor model. Pre-pubescent rats (female, Sprague Dawley) received a single intra-peritoneal injection of 50 mg/kg of NMU (N-nitroso-N-methylurea, Sigma, Switzerland). Rats developing tumours were enrolled in protocol. In the NMU model, animals can develop several tumours allowing to have tumors receiving microvesicles and ultrasound for therapy; and tumors without ultrasound insonation (called untreated) in the same animal. The rats were anesthetized and placed on dorsal decubitus. A catheter was placed in the tail vein to inject drugs and microvesicles. The US treatment transducer was placed at 5 cm of the tumor (spaced by a water tank). […] To evaluate the efficiency of molecular extravasation, a 150 kDa-dextran labeled with Cy©5.5 fluorophore was injected just before therapeutic treatment with ultrasounds and microvesicles. […] Tumors were then harvested from sacrificed animals; the fluorescence was quantified on image acquired ex vivo (Fluobeam® 700). The fluorescence was quantified by ImageJ software.

[5] = system: mesenteric rat microcirculation; test: Vasospasm inhibition by vasospasm inhibitor pre-treatment before US-MV (Examples 4, 7); format: in vivo; conditions: for ability to inhibit the vasospasm: Example 7, conditions of Table 6 (P02, US 400 kPa, 5 min); for Vasospasm occurrence (on 3 animals/condition) / Vasospasm occurrence, percent: P02 1.5E+09 MV/kg, 1 bolus, US 400 kPa, 1 ms ON/10 s OFF, 5 min
Description: The model used for these experiments was the mesenteric rat microcirculation. Briefly, anesthetized animals were prepared to allow the visualization of an intestinal loop. The injections were made in the tail vein.
Rats were placed under the inverted microscope (Olympus® X2) equipped with a X20 objectives (mag final: 200). A numeric camera, driven by an open source software, acquired and recorded 30 s video at each time points required, in accordance with the protocol.
US treatment was delivered by an experimental single element transducer (unfocused, plane, 1.5 MHz). Table 1 reports the tested US parameters, including the pulse scheme, the acoustic pressure and the duration of US application, for each protocol. The transducer was focus on the optical objective and placed to respect a working distance of 5 cm.
Image sequences were acquired, before, during and after treatment. Additional acquisitions could be performed every 5 min until 40 min after the initiation of US exposure to monitor the vasospasm resolution.
The model used for these experiments was the mesenteric rat microcirculation. The model and animal preparation were described in example 2.
This study aimed at the evaluation of the inhibition of vasospasm induced by a vasospasm inhibitor compound, in particular the dihydropiridine calcium channel blocker nimodipine.
For this purpose, the rats received a pre-treatment with nimodipine, 10 mins before the combined treatment of gas-filled microvesicles and ultrasound for therapy.
Nimodipine (Sigma Aldrich, Switzerland) powder was first diluted in DMSO (40 mg/ml); the injected dose (1.4 mg/kg) was extemporary prepared in NaCl 0.9% and injected 10 min before the treatment.
The treatment parameters were chosen in accordance with the previous studies to obtain the generation of a vasospasm. P01 formulation was administered for this study.
This study aimed at assessing the efficacy of different pharmacological classes of vasospasm inhibitor drugs currently used in clinic on the vasospasm inhibition.
The duration between pre-treatment and injection of microvesicles and ultrasound treatment was in accordance with the pharmacocinetik pharmacokinetics and pharmacodynamics of each drug.

[6] = Prazosin 0.5 mg/kg, pre-treatment time 10 min
[7] = Trinitrine (dose not given), pre-treatment time 1 min
[8] = Mg^2+ 300 mM, pre-treatment time 0 min

COCCOC(=O)C1=C(C)NC(C)=C(C(=O)OC(C)C)C1c1cccc([N+](=O)[O-])c1 (stereo not shown) [Nimodipine]
Decrease of perfusion in tumor, percent [1]: (100%)
Decrease of perfusion in tumor, percent [2]: 0%
Vasospasm occurrence (on 3 animals/condition) [3]: 0/3
Vasospasm occurrence, percent [3]: 100%
mean fluorescence value (Cy5.5 dextran in tumour, ex vivo) ([4]; fifth group: VI pre-administration (Nimodipine 1.4 mg/kg, 10 min before) then US-MV, 600 kPa, 1 ms ON/10 s OFF, 20 min): 2060 RFU/px/ms
mean fluorescence signal (Cy5.5 dextran in tumour, ex vivo) ([4]; third group: VI+MV, no US, Nimodipine 1.4 mg/kg 10 min before, MV P02 or Definity 8 μl gas/kg in 4 boluses): 1030 RFU/px/ms

COc1cc2nc(N3CCN(C(=O)c4ccco4)CC3)nc(N)c2cc1OC [Prazosin]
ability to inhibit the vasospasm [5]: lower ability
Vasospasm occurrence (on 3 animals/condition) [5, 6]: 1/3
Vasospasm occurrence, percent [5, 6]: 33%

C[C@H](CS)C(=O)N1CCC[C@H]1C(=O)O [Captoprill, Captopril]
ability to inhibit the vasospasm [5]: did not show any relevant inhibiting activity

O=[N+]([O-])OCC(CO[N+](=O)[O-])O[N+](=O)[O-] [Trinitrine]
ability to inhibit the vasospasm [5]: good ability to inhibit the vasospasm
Vasospasm occurrence (on 3 animals/condition) [5, 7]: 0/3
Vasospasm occurrence, percent [5, 7]: (0%)

[Mg+2] [Mg^2+, magnesium]
ability to inhibit the vasospasm [5]: good ability to inhibit the vasospasm
Vasospasm occurrence (on 3 animals/condition) [5, 8]: 0/3
Vasospasm occurrence, percent [5, 8]: 0%
